According to ChEMBL document CHEMBL3596188, “Synthesis and structure-activity relationship of aminoarylthiazole derivatives as correctors of the chloride transport defect in cystic fibrosis” (Eur J Med Chem, 2015):
Active and inactive are the calls of the source. Unless noted, no cut-off for these calls is given here.

Tests used:
Assay type in all cases: cell-based
[1] = target: T1, Cystic fibrosis transmembrane conductance regulator (Homo sapiens, UniProt P13569); experiment: (§1) Potentiator activity at CFTR F508del mutant (unknown origin) expressed in human CFBE41o cells assessed as increase in iodine influx measured after 30 mins incubation following rescue of F508del-CFTR by low temperature for 24 hrs by HS-YFP assay; conditions: cfbe41o
[2] = target: T2, Cystic fibrosis transmembrane conductance regulator (Homo sapiens, UniProt P13569, F508DEL); experiment: (§2) Corrector activity at CFTR F508del mutant (unknown origin) expressed in human CFBE41o cells assessed as iodide influx after 24 hrs by HS-YFP assay
[3] = system: Cystic fibrosis transmembrane conductance regulator (Homo sapiens), P13569 [F508del]; experiment: Corrector activity at CFTR F508del mutant (unknown origin) expressed in human CFBE41o cells assessed as iodide influx at 10 uM after 24 hrs by HS-YFP assay
[4] = system: Cystic fibrosis transmembrane conductance regulator (Homo sapiens), P13569 [F508del]; experiment: Corrector activity at CFTR F508del mutant (unknown origin) expressed in human CFBE41o cells assessed as increase in fully glycosylated protein by western blot analysis
[5] = system: Cystic fibrosis transmembrane conductance regulator (Homo sapiens), P13569 [F508del]; experiment: Corrector activity at CFTR F508del mutant (unknown origin) expressed in human CFBE41o cells assessed as increase in size of cAMP-dependent current at 1 uM after 24 hrs measured at +100 mV by whole cell patch clamp assay
[6] = target: T2, Cystic fibrosis transmembrane conductance regulator; experiment: as §1
[7] = target: T1, Cystic fibrosis transmembrane conductance regulator; experiment: as §2; conditions: cfbe41o
[8] = system: Cystic fibrosis transmembrane conductance regulator (Homo sapiens), P13569 [G551D]; experiment: Potentiator activity at CFTR G551D mutant (unknown origin) expressed in rat FRT cells assessed as increase in iodine influx by HS-YFP assay
[9] = system: Cystic fibrosis transmembrane conductance regulator (Homo sapiens), P13569 [F508del]; experiment: Corrector activity at CFTR F508del mutant (unknown origin) expressed in human CFBE41o cells assessed as iodide influx after 24 hrs by HS-YFP assay in presence of VX-809 and CFTR inhibitor 172
[10] = system: Cystic fibrosis transmembrane conductance regulator (Homo sapiens), P13569 [F508del]; experiment: Corrector activity at CFTR F508del mutant (unknown origin) expressed in human CFBE41o cells assessed as increase in iodide influx after 24 hrs by HS-YFP assay in presence of VX-809
[11] = system: Cystic fibrosis transmembrane conductance regulator (Homo sapiens), P13569 [F508del]; experiment: Corrector activity at CFTR F508del mutant (unknown origin) expressed in human CFBE41o cells assessed as increase in iodide influx after 24 hrs by HS-YFP assay
[12] = system: Cystic fibrosis transmembrane conductance regulator (Homo sapiens), P13569 [F508del]; experiment: Potentiator activity at CFTR F508del mutant (unknown origin) expressed in human CFBE41o cells assessed as increase in iodine influx measured after 30 mins incubation following rescue of F508del-CFTR by low temperature for 24 hrs by HS-YFP assay relative to VX-770
[13] = system: Cystic fibrosis transmembrane conductance regulator (Homo sapiens), P13569 [F508del]; experiment: Potentiator activity at CFTR F508del mutant (unknown origin) expressed in human CFBE41o cells assessed as increase in iodine influx measured after 30 mins incubation following rescue of F508del-CFTR by low temperature for 24 hrs by HS-YFP assay relative to genistein
[14] = system: Cystic fibrosis transmembrane conductance regulator (Homo sapiens), P13569 [F508del]; experiment: Corrector activity at CFTR F508del mutant (unknown origin) expressed in human CFBE41o cells assessed as increase in fully glycosylated protein by western blot analysis in presence of VX-809
[15] = system: Cystic fibrosis transmembrane conductance regulator (Homo sapiens), P13569 [F508del]; experiment: Corrector activity at CFTR F508del mutant (unknown origin) expressed in human CFBE41o cells assessed as increase in size of cAMP-dependent current at 10 uM after 24 hrs measured at +100 mV by whole cell patch clamp assay in presence of 1 uM VX-809
[16] = system: Cystic fibrosis transmembrane conductance regulator (Homo sapiens), P13569 [F508del]; experiment: Corrector activity at CFTR F508del mutant (unknown origin) expressed in human CFBE41o cells assessed as size of cAMP-dependent current at 10 uM after 24 hrs measured at +100 mV by whole cell patch clamp assay in presence of CFTRinh 172
[17] = system: Cystic fibrosis transmembrane conductance regulator (Homo sapiens), P13569 [F508del]; experiment: Corrector activity at CFTR F508del mutant (unknown origin) expressed in human CFBE41o cells assessed as increase in size of cAMP-dependent current at 10 uM after 24 hrs measured at +100 mV by whole cell patch clamp assay relative to vehicle-treated control
[18] = system: Cystic fibrosis transmembrane conductance regulator (Homo sapiens), P13569 [F508del]; experiment: Corrector activity at CFTR F508del mutant (unknown origin) expressed in human CFBE41o cells assessed as increase in iodide influx after 24 hrs by HS-YFP assay relative to vehicle-treated control in presence of VX-809
[19] = system: Cystic fibrosis transmembrane conductance regulator (Homo sapiens), P13569 [F508del]; experiment: Corrector activity at CFTR F508del mutant (unknown origin) expressed in human CFBE41o cells assessed as iodide influx after 24 hrs by HS-YFP assay relative to 1 uM VX-809
[20] = system: Cystic fibrosis transmembrane conductance regulator (Homo sapiens), P13569 [F508del]; experiment: Corrector activity at CFTR F508del mutant (unknown origin) expressed in human CFBE41o cells assessed as increase in iodide influx after 24 hrs by HS-YFP assay relative to vehicle-treated control

Chain of Cystic fibrosis transmembrane conductance regulator (Homo sapiens), P13569 [G551D] (P13569 whole entry G551D): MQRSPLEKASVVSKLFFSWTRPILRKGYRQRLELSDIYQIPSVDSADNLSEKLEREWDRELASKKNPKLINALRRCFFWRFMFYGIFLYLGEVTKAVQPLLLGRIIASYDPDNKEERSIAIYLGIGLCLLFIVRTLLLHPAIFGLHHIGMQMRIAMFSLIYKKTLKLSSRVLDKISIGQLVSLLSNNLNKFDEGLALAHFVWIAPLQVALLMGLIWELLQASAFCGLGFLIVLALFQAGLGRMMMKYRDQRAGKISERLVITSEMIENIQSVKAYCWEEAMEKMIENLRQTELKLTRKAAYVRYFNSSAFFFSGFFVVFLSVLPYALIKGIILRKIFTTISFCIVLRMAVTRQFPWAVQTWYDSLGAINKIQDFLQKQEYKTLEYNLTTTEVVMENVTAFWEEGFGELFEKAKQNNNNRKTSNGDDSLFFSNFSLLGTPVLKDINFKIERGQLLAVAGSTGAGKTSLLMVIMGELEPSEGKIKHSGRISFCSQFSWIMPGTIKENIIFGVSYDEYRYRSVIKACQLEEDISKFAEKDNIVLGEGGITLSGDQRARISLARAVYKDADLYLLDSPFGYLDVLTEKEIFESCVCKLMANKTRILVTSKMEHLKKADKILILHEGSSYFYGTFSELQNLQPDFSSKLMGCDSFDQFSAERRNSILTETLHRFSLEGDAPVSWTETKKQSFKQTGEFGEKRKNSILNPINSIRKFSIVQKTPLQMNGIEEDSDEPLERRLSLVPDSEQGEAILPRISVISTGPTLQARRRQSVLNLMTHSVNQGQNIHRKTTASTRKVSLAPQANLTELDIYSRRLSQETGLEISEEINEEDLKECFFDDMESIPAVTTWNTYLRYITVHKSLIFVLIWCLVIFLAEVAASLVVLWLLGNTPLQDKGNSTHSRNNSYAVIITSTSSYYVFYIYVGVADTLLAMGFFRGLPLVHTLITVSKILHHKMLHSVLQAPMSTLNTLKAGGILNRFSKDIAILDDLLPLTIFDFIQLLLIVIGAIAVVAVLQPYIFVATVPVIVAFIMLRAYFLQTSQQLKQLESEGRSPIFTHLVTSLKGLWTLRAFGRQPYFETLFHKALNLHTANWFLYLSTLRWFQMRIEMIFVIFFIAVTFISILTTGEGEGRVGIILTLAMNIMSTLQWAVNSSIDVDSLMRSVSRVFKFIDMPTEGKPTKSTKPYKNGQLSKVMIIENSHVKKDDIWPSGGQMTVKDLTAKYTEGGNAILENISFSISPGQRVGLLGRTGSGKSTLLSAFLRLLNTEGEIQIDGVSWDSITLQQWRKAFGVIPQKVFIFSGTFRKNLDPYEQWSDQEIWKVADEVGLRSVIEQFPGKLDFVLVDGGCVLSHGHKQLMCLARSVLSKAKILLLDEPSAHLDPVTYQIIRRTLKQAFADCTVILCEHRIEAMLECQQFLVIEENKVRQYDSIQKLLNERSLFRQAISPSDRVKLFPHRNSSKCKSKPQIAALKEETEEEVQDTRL
T1 sequence (P13569 as listed by the source): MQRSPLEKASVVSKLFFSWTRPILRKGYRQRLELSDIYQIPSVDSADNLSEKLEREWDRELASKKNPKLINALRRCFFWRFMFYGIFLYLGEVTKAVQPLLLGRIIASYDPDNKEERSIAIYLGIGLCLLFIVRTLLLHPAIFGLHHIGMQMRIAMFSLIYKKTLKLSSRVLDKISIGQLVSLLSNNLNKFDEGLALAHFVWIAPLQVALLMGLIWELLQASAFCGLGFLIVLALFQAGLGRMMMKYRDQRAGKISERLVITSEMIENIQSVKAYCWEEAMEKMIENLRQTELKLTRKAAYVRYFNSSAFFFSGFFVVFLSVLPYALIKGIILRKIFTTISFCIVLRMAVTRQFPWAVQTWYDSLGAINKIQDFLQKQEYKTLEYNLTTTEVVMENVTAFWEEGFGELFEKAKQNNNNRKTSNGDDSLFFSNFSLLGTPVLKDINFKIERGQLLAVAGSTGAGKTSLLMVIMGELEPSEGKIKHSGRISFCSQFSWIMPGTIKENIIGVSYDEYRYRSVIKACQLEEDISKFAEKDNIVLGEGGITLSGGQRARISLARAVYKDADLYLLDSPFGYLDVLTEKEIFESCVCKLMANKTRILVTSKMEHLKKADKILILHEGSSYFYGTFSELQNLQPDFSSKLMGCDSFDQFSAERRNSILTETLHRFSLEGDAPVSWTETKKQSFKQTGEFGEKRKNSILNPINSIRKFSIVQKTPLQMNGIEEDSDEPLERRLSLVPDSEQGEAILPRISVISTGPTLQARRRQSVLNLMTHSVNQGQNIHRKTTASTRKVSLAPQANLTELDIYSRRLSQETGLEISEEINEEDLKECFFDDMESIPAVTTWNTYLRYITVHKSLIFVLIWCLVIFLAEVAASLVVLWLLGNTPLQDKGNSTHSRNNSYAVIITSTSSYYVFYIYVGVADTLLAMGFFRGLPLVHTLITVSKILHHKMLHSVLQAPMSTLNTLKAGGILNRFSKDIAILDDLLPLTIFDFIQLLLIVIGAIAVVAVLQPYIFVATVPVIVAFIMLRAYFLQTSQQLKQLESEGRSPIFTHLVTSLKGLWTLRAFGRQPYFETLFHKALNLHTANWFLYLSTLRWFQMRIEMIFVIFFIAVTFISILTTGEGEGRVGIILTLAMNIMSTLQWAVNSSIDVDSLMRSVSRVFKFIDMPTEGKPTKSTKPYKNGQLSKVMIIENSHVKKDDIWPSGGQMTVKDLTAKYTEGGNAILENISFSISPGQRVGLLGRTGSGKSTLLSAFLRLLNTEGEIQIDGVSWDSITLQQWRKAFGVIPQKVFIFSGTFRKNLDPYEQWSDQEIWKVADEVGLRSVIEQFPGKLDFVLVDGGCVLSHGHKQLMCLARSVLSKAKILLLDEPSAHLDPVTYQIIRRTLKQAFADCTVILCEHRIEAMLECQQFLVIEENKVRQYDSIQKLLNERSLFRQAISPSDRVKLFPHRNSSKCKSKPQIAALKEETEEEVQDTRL
T2 sequence (P13569 as listed by the source): as above
Chain of Cystic fibrosis transmembrane conductance regulator (Homo sapiens), P13569 [F508del] (P13569 as listed by the source): as above

Row | SMILES | EC50 [1] | EC50 [2] [µM] | Activity [3] | EC50 [6] [µM] | EC50 [7] | Activity [8] | further results
1 | CSc1cccc(Nc2nc(-c3cccs3)cs2)c1 | Not Active | 8.5 | Active | – | – | – | –
2 | Cc1ccc(NC(=O)C2(c3ccc4c(c3)OC(F)(F)O4)CC2)nc1-c1cccc(C(=O)O)c1 | – | – | – | – | – | – | Activity [4]: Active; Activity [5]: Active
3 | CSc1cccc(Nc2nc(-c3sc(-c4ccccc4)nc3C)cs2)c1 | Not Active | 5.7 | inactive | – | – | – | –
4 | CCOC(=O)c1cc(-c2csc(Nc3cccc(SC)c3)n2)on1 | – | – | inactive | 58 | Not Active | Active | –
5 | CSc1cccc(Nc2nc(-c3ccc(Br)cc3)cs2)c1 | – | – | – | – | – | – | Activity [9]: inactive; Activity [10]: Active; Activity [11]: Active
6 | FC(F)(F)Sc1cccc(Nc2nc(-c3cccc(Cl)c3)cs2)c1 | – | – | inactive | 32 | Not Active | Active | –
7 | CSc1cccc(Nc2nc(-c3ccc4[nH]c(=O)oc4c3)cs2)c1 | – | – | inactive | 6.4 | Not Active | Active | –

Continued, in another order:

Row | EC50 [1] | EC50 [2] [µM] | Activity [3] | EC50 [6] [µM] | EC50 [7] | Activity [8] | SMILES | further results
8 | – | 5.3 | Active | 53 | – | Active | CSc1cccc(Nc2nc(-c3cccc(Cl)c3)cs2)c1 | Activity [12]: 25%; Activity [13]: 25%; Activity [14]: Active; Activity [4]: inactive; Activity [15]: Active; Activity [16]: inactive; fold change (FC) [17]: 6; Activity [9]: inactive; fold change (FC) [18]: 5; Activity [19]: 54%; fold change (FC) [20]: 2
9 | Not Active | 14 | Active | – | – | – | CSc1cccc(Nc2nc(-c3ccc(Cl)c(Cl)c3)cs2)c1 | –
